Values quoted from earlier work in PMC7744997 (Clinical Infectious Diseases: An Official Publication of …, 2020).

System: RSV
Conditions: cited from earlier work

| SMILES | Outcome on viral load endpoints in clinical studies |
| --- | --- |
| Cc1ccc([C@]23Cn4cccc4C(=O)N2CCN3C(=O)c2conc2C)cn1 [BTA-C585] | failure to meet viral load endpoints |
| Cc1cn2nc([C@@H]3CCCCN3C(=O)c3cc(Cl)ccc3NS(C)(=O)=O)cc2nc1N1CC[C@H](N)C1 [presatovir] | failure to meet viral load endpoints |
